Results reported in patent publication US20130116195A1, “Binding ligand linked drug delivery conjugates of tubulysins” (priority 2009, published 2013).

Target: T1, folate receptors (FRs) on KB cells (Homo sapiens, UniProt P15328)
T1 construct: FR-positive KB cells were heavily seeded into 24-well cell culture plates; endogenous in cells; host or cells: KB cells
Test: Relative Affinity Assay (displacement of 3H-folic acid)
Assay type: binding
Settings: 10% serum/FDRPMI; folic acid set to 1
Method: METHOD: Relative Affinity Assay. The affinity for folate receptors (FRs) relative to folate was determined according to a previously described method (Westerhof, G. R., J. H. Schornagel, et al. (1995) Mol. Pharm. 48: 459-471) with slight modification. Briefly, FR-positive KB cells were heavily seeded into 24-well cell culture plates and allowed to adhere to the plastic for 18 h. Spent incubation media was replaced in designated wells with folate-free RPMI (FFRPMI) supplemented with 100 nM ^3H-folic acid in the absence and presence of increasing concentrations of test article or folic acid. Cells were incubated for 60 min at 37° C. and then rinsed 3 times with PBS, pH 7.4. Five hundred microliters of 1% SDS in PBS, pH 7.4, were added per well. Cell lysates were then collected and added to individual vials containing 5 mL of scintillation cocktail, and then counted for radioactivity. Negative control tubes contained only the ^3H-folic acid in FFRPMI (no competitor). Positive control tubes contained a final concentration of 1 mM folic acid, and CPMs measured in these samples (representing non-specific binding of label) were subtracted from all samples.

T1 sequence (P15328 25-234): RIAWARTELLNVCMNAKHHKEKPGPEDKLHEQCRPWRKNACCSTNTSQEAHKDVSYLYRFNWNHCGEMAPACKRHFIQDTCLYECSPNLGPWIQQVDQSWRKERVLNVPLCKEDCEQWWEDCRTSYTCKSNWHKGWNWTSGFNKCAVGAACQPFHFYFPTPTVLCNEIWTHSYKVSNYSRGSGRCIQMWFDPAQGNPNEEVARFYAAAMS

- relative affinity: 1
Compound: Nc1nc2ncc(CNc3ccc(C(=O)N[C@@H](CCC(=O)O)C(=O)O)cc3)nc2c(=O)[nH]1 [folic acid]
